Patent US20160095923A1, “ORAL COMPOSITION COMPRISNG (+)-CATECHIN” (VALORE, priority 2013, published 2016)

What was measured:
[1] = Bioavailability after oral administration in human beings (free monomeric (+)-catechin in plasma, LC-MS/MS)
Description: (§1) The experimental results described below were obtained on the basis of a study carried out in healthy human beings and in healthy Wistar rats weighing approximately 250 grams.
(§2) With regard to taking the blood samples from the rats and from the human beings, the blood was collected in tubes internally coated with EDTA and was then centrifuged at 3000 rpm (revolutions per minute) at ambient temperature for 45 min, and then for 15 min at a temperature of 4° C. The plasma was then collected and stored at −70° C. before analysis.
(§3) The analytical technique (LC-MS/MS for Liquid Chromatography coupled to tandem Mass Spectrometry) for measuring the active substance in the blood was based on the method described by Mata-Bilbao et al., published in 2007 in the Journal of Agricultural and Food Chemistry, volume 55, page 8857.
(§4) The free (+)-catechin was extracted from the plasma with a solution of phosphoric acid, EDTA and ascorbic acid and was then purified by SPE (solid phase extraction); in particular, it is an Oasis™ HLB extraction which is analyzed by LC-MS/MS. The quantification was carried out according to a standard calibration procedure with (+/−)-catechin-2,3,4-^13C3 as internal standard (SI).
This complex salt is administered to a group A of 5 healthy volunteers.
This ct parameter makes it possible to calculate, from the data of table 1, the bioavailability of the (+)-catechin expressed in ng h/ml.

[2] = Solubility in water; type: physicochemical
[3] = Bioavailability after oral administration or intravenous injection in Wistar rats (free/total polyphenol in plasma, LC-MS/MS); details: per os
Description: as §1
An acclimation period was observed before beginning the experiments.
The rats received an administration per os of a volume of 5 ml of a solution of active product.
as §2, §3, §4
The procedure is identical with regard to the extraction and the quantification of free quercetin or ECGC in the blood.
With regard to the extraction and quantification of the total (+)-catechin, the procedure is the same as that applied to the free (+)-catechin, with the exception of the fact that an additional step prior to the purification by SPE is carried out.
Each of the mixtures is then solubilized in water.
Each of the mixtures is solubilized in water.

[4] = test system: rat skin; test: Total incorporation and incorporation into collagen of 3H-proline in the skin; type: in vivo, Wistar rats; details: 100 mg/kg by gavage for 5 days
Description: To do this, a study was carried out in vivo on a batch of 24 female Wistar rats weighing from 95 to 115 g, divided into two groups C and D, each of 12 rats. For each group, the radioactive 3H-hydroxyproline, the specific activity of which is 13.6 Ci/10^−3 mol, was administered to all the animals by intraperitoneal injection of proline-L-(5-3H) at a dose, relative to the weight of the individuals, of 1 mCi/kg, which represents an activity in terms of radioactive 3H-proline of 100 μCi/individual.
6 rats of each group received a treatment based on monomeric (+)-catechin by gavage in a proportion of 100 mg/kg for 5 days before sacrifice. […] The group C received monomeric (+)-catechin hydrochlorolysinate, while the group D received monomeric (+)-catechin ascorbolysinate.
In table 8, the level of incorporation is measured by the number of disintegrations of the radioactive 3H-hydroxyproline per minute (dpm) per mg of dry weight. The higher this number, the higher the concentration of 3H-hydroxyproline.
In this comparative example, a group E of 12 Wistar rats weighing from 95 to 115 g, in which radioactive 3H-hydroxyproline, the specific activity of which is 13.6 Ci/10^−3 mol, was administered to all the individuals by intraperitoneal injection of proline-L-(5-3H) at a dose, relative to the weight of the individuals, of 1 mCi/kg, which represents an activity in terms of radioactive 3H-proline of 100 ρCi/individual.
6 rats of each group received a treatment based on pure monomeric (+)-catechin by gavage in a proportion of 100 mg/kg for 5 days before sacrifice.
In table 9, the level of incorporation is measured by the number of disintegrations of the radioactive 3H-hydroxyproline per minute (dpm) per mg of dry weight. The higher this number, the higher the concentration of 3H-hydroxyproline.

[5] = group B, oral 1 g pure catechin, free catechin
[6] = free catechin, dose equivalent to 100 mg/kg catechin, 5 rats
[7] = free catechin, equivalent to 25 mg/kg, 3 rats (comparative example 4)
[8] = free catechin, equivalent to 25 mg/kg, 5 rats, mixture dissolved in water (comparative examples 6-9)
[9] = total (+)-catechin, equivalent to 25 mg/kg, 3 rats

With Oc1cc(O)c2c(c1)O[C@H](c1ccc(O)c(O)c1)[C@@H](O)C2 [CP, (+)-catechin] the “plasma concentration (cc) of free monomeric (+)-catechin” value ([1]; group B, oral 1 g pure catechin, T 0.5 h) was 59 ± 61 ng/mL, the “plasma concentration (cc) of free monomeric (+)-catechin” value ([1]; group B, oral 1 g pure catechin, T 1 h) was 266 ± 147 ng/mL and the “plasma concentration (cc) of free monomeric (+)-catechin” value ([1]; group B, oral 1 g pure catechin, T 2 h) was 230 ± 87 ng/mL. For the same compound, the “plasma concentration (cc) of free monomeric (+)-catechin” value ([1]; group B, oral 1 g pure catechin, T 3 h) was 226 ± 38 ng/mL, the “plasma concentration (cc) of free monomeric (+)-catechin” value ([1]; group B, oral 1 g pure catechin, T 4 h) was 128 ± 51 ng/mL and the “plasma concentration (cc) of free monomeric (+)-catechin” value ([1]; group B, oral 1 g pure catechin, T 6 h) was 27 ± 13 ng/mL. For the same compound, the “T (max)” value [1, 5] was 1.20 h, the “ct (total concentration, area under curve over 6 h)” value [1, 5] was 904 ± 163 ng·h/mL and the “c (max)” value ([1]; oral 1 g pure catechin, free catechin) was 280 ng/mL. For the same compound, the “T (max)” value ([1]; oral, humans, as stated in summary text) was 1.33 h, the “c (max) related to 0.92 g of pure (+)-catechin” value ([1]; oral, scaled from 1 g to 0.92 g dose) was 258 ng/mL and the “ct related to 0.92 g of pure (+)-catechin” value ([1]; oral, scaled from 1 g to 0.92 g dose, listed as pure (+)-catechin) was 832 ± 150 ng·h/mL. The solubility in water ([2]; at 20° C.) was 0.9 g per liter, the “solubility in water, times lower than in the form of a complex” value ([2]; pure catechin versus complex with basic amino acid) was 400 times and the “Δct (difference of ct to CP)” value ([3]; free catechin, dose equivalent to 100 mg/kg catechin) was 0%. The “T (max)” value [3, 6] was 1 h, the “c (max)” value [3, 6] was 716 ng/mL and the ct [3, 6] was 96 238 ng min/ml. The “Δct (difference of ct to CP)” value ([3]; free catechin, equivalent to 25 mg/kg (comparative example 4)) was 0%, the “Δct (difference of ct to CP)” value ([3]; free catechin, equivalent to 25 mg/kg (comparative examples 7-9)) was 0% and the “T (max)” value [3, 7] was 0.5 h. The “c (max)” value [3, 7] was 154 ng/mL, the ct [3, 7] was 21 145 ng min/ml and the “T (max)” value [3, 8] was 1 h. The “c (max)” value [3, 8] was 580 ng/mL, the “Δct (difference of ct to CP)” value ([3]; total (+)-catechin, equivalent to 25 mg/kg) was 0% and the “T (max)” value [3, 9] was 0.5 h. For the same compound, the “c (max)” value [3, 9] was 2200 ng/mL, the ct [3, 9] was 273 875 ng min/ml and the “increase in the level of incorporation versus control” value [4] was “+16%”. The “level of incorporation into collagen (IC) of 3H-hydroxyproline in rat skin” value ([4]; treated subgroup) was 1124 ± 51 dpm/mg and the “level of total incorporation (IT) of 3H-hydroxyproline in rat skin” value ([4]; treated subgroup) was 5689 ± 410 dpm/mg.
